Measurements reported in PubChem BioAssay AID1963871 (Molecular Pharmacology Branch, DTP, NCI, 2024).

Test system: KRAS-mutant PDC multicell tumor spheroid viability
Experiment: Anticancer human tumor 521955-158-R2-J5-PDC patient-derived pancreatic carcinoma cell line growth inhibition [KRAS2]
Conditions: for viability, T/C: stronger effect = lower value
Outline: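 KRAS-mutant tumor cells were grown as spheroids with HUVEC endothelial cells and human MSCs as stroma. Targeted agents were tested alone and with KRAS pathway inhibitors. Doses started at or near clinical Cmax, or 10 microM, descending half-log.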

[1] = curve of first compound, second compound 0.1 µM
[2] = curve of first compound, second compound 0.316 µM
[3] = curve of first compound, second compound 1 µM
[4] = curve of first compound, second compound 3.16 µM
[5] = curve of first compound, second compound 10 µM
[6] = second compound 0.1 µM, first compound 0.0316 µM
[7] = second compound 0.1 µM, first compound 0.1 µM
[8] = second compound 0.1 µM, first compound 0.316 µM
[9] = second compound 0.1 µM, first compound 1 µM
[10] = second compound 0.1 µM, first compound 3.16 µM
[11] = second compound 0.1 µM, first compound 10 µM
[12] = second compound 0.316 µM, first compound 0.0316 µM
[13] = second compound 0.316 µM, first compound 0.1 µM
[14] = second compound 0.316 µM, first compound 0.316 µM
[15] = second compound 0.316 µM, first compound 1 µM
[16] = second compound 0.316 µM, first compound 3.16 µM
[17] = second compound 0.316 µM, first compound 10 µM
[18] = second compound 1 µM, first compound 0.0316 µM
[19] = second compound 1 µM, first compound 0.1 µM
[20] = second compound 1 µM, first compound 0.316 µM
[21] = second compound 1 µM, first compound 1 µM
[22] = second compound 1 µM, first compound 3.16 µM
[23] = second compound 1 µM, first compound 10 µM
[24] = second compound 3.16 µM, first compound 0.0316 µM
[25] = second compound 3.16 µM, first compound 0.1 µM
[26] = second compound 3.16 µM, first compound 0.316 µM
[27] = second compound 3.16 µM, first compound 1 µM
[28] = second compound 3.16 µM, first compound 3.16 µM
[29] = second compound 3.16 µM, first compound 10 µM
[30] = second compound 10 µM, first compound 0.0316 µM
[31] = second compound 10 µM, first compound 0.1 µM
[32] = second compound 10 µM, first compound 0.316 µM
[33] = second compound 10 µM, first compound 1 µM
[34] = second compound 10 µM, first compound 3.16 µM
[35] = second compound 10 µM, first compound 10 µM
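Further: viability read after seven days of drug exposure.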

Structure (SMILES): COC(=O)c1ccc2c(C(=Nc3ccc(N(C)C(=O)CN4CCN(C)CC4)cc3)c3ccccc3)c(O)[nH]c2c1 + C=CC(=O)N1CCN(c2nc(=O)n(-c3c(C)ccnc3C(C)C)c3nc(-c4c(O)cccc4F)c(F)cc23)C(C)C1
- IC50 [1]: 1720 nM
- IC50 [2]: 1540 nM
- IC50 [3]: 727 nM
- IC50 [4]: 1010 nM
- IC50 [5]: 1260 nM
- viability, T/C [6]: 89.6%
- viability, T/C [7]: 88.4%
- viability, T/C [8]: 87%
- viability, T/C [9]: 75.9%
- viability, T/C [10]: 21%
- viability, T/C [11]: 0.16%
- viability, T/C [12]: 102%
- viability, T/C [13]: 88.1%
- viability, T/C [14]: 89.9%
- viability, T/C [15]: 74.2%
- viability, T/C [16]: 10.3%
- viability, T/C [17]: 0.14%
- viability, T/C [18]: 113%
- viability, T/C [19]: 96.4%
- viability, T/C [20]: 77%
- viability, T/C [21]: 43.5%
- viability, T/C [22]: 4.15%
- viability, T/C [23]: 0.16%
- viability, T/C [24]: 86%
- viability, T/C [25]: 82.1%
- viability, T/C [26]: 67.9%
- viability, T/C [27]: 53.4%
- viability, T/C [28]: 2.33%
- viability, T/C [29]: 0.14%
- viability, T/C [30]: 66.5%
- viability, T/C [31]: 71.5%
- viability, T/C [32]: 56.6%
- viability, T/C [33]: 61.2%
- viability, T/C [34]: 4.87%
- viability, T/C [35]: 0.22%

Structure (SMILES): CN(C)C/C=C/C(=O)Nc1cc2c(Nc3ccc(F)c(Cl)c3)ncnc2cc1O[C@H]1CCOC1 + COc1cc2nc(C)nc(NC(C)c3cc(N)cc(C(F)(F)F)c3)c2cc1OC1CCOC1
- IC50 [1]: > 100 nM
- IC50 [2]: > 100 nM
- IC50 [3]: > 100 nM
- IC50 [4]: > 100 nM
- IC50 [5]: > 100 nM
- viability, T/C (second compound 0.1 µM, first compound 0.000316 µM): 91.4%
- viability, T/C (second compound 0.1 µM, first compound 0.001 µM): 93.2%
- viability, T/C (second compound 0.1 µM, first compound 0.00316 µM): 74.3%
- viability, T/C (second compound 0.1 µM, first compound 0.01 µM): 79.6%
- viability, T/C [6]: 86.8%
- viability, T/C [7]: 85%
- viability, T/C (second compound 0.316 µM, first compound 0.000316 µM): 78.4%
- viability, T/C (second compound 0.316 µM, first compound 0.001 µM): 84.8%
- viability, T/C (second compound 0.316 µM, first compound 0.00316 µM): 63.5%
- viability, T/C (second compound 0.316 µM, first compound 0.01 µM): 74.5%
- viability, T/C [12]: 80.4%
- viability, T/C [13]: 61.1%
- viability, T/C (second compound 1 µM, first compound 0.000316 µM): 79.8%
- viability, T/C (second compound 1 µM, first compound 0.001 µM): 99.6%
- viability, T/C (second compound 1 µM, first compound 0.00316 µM): 82.6%
- viability, T/C (second compound 1 µM, first compound 0.01 µM): 69.8%
- viability, T/C [18]: 84.3%
- viability, T/C [19]: 77.2%
- viability, T/C (second compound 3.16 µM, first compound 0.000316 µM): 91.5%
- viability, T/C (second compound 3.16 µM, first compound 0.001 µM): 93.9%
- viability, T/C (second compound 3.16 µM, first compound 0.00316 µM): 88.5%
- viability, T/C (second compound 3.16 µM, first compound 0.01 µM): 71.2%
- viability, T/C [24]: 77.8%
- viability, T/C [25]: 71.8%
- viability, T/C (second compound 10 µM, first compound 0.000316 µM): 90.2%
- viability, T/C (second compound 10 µM, first compound 0.001 µM): 82.8%
- viability, T/C (second compound 10 µM, first compound 0.00316 µM): 86%
- viability, T/C (second compound 10 µM, first compound 0.01 µM): 85.4%
- viability, T/C [30]: 91.8%
- viability, T/C [31]: 72.7%

Structure (SMILES): COC(=O)c1ccc2c(C(=Nc3ccc(N(C)C(=O)CN4CCN(C)CC4)cc3)c3ccccc3)c(O)[nH]c2c1 + CC1OCC2(CCN(c3cnc(Sc4ccnc(N)c4Cl)c(N)n3)CC2)C1N
- IC50 [1]: 2490 nM
- IC50 [2]: 1800 nM
- IC50 [3]: 1070 nM
- IC50 [4]: 1080 nM
- IC50 [5]: 1120 nM
- viability, T/C [6]: 79.4%
- viability, T/C [7]: 80.7%
- viability, T/C [8]: 72.9%
- viability, T/C [9]: 80.8%
- viability, T/C [10]: 42.5%
- viability, T/C [11]: 0.38%
- viability, T/C [12]: 66.3%
- viability, T/C [13]: 70.5%
- viability, T/C [14]: 60%
- viability, T/C [15]: 85.4%
- viability, T/C [16]: 30.1%
- viability, T/C [17]: 0.37%
- viability, T/C [18]: 46.8%
- viability, T/C [19]: 46.7%
- viability, T/C [20]: 55.9%
- viability, T/C [21]: 57%
- viability, T/C [22]: 26.6%
- viability, T/C [23]: 0.4%
- viability, T/C [24]: 56%
- viability, T/C [25]: 58.6%
- viability, T/C [26]: 58%
- viability, T/C [27]: 51.7%
- viability, T/C [28]: 23.2%
- viability, T/C [29]: 0.51%
- viability, T/C [30]: 61.1%
- viability, T/C [31]: 58.3%
- viability, T/C [32]: 64.3%
- viability, T/C [33]: 55.4%
- viability, T/C [34]: 0.64%
- viability, T/C [35]: 0.38%

Structure (SMILES): CCN1CCN(Cc2ccc(Nc3ncc(F)c(-c4cc(F)c5nc(C)n(C(C)C)c5c4)n3)nc2)CC1
- viability, T/C (compound 0.00316 µM): 99% [middle of 5 runs]
- viability, T/C (compound 0.01 µM): 98.1% [middle of 5 runs]
- viability, T/C (compound 0.0316 µM): 87.7% [middle of 5 runs]
- viability, T/C (compound 0.1 µM): 90.7% [middle of 5 runs]
- viability, T/C (compound 0.316 µM): 99.1% [middle of 5 runs]
- viability, T/C (compound 1 µM): 87.5% [middle of 5 runs]
- IC50 (curve of compound): > 1000 nM

Structure (SMILES): O=C(c1cc(Cc2n[nH]c(=O)c3ccccc23)ccc1F)N1CCN(C(=O)C2CC2)CC1 + C=CC(=O)N1CCN(c2nc(OCC3CCCN3C)nc3c2CCN(c2cccc4cccc(C)c24)C3)CC1CC#N
- IC50 (curve of first compound, second compound 0.0316 µM): > 10000 nM
- IC50 [1]: > 10000 nM
- IC50 [2]: > 10000 nM
- IC50 [3]: 6450 nM
- IC50 [4]: < 31.6 nM
- viability, T/C (second compound 0.0316 µM, first compound 0.0316 µM): 104%
- viability, T/C (second compound 0.0316 µM, first compound 0.1 µM): 101%
- viability, T/C (second compound 0.0316 µM, first compound 0.316 µM): 99.4%
- viability, T/C (second compound 0.0316 µM, first compound 1 µM): 85.1%
- viability, T/C (second compound 0.0316 µM, first compound 3.16 µM): 80.2%
- viability, T/C (second compound 0.0316 µM, first compound 10 µM): 61.3%
- viability, T/C [6]: 95.2%
- viability, T/C [7]: 94.9%
- viability, T/C [8]: 93.7%
- viability, T/C [9]: 92.2%
- viability, T/C [10]: 78.5%
- viability, T/C [11]: 54%
- viability, T/C [12]: 94.2%
- viability, T/C [13]: 92.8%
- viability, T/C [14]: 84.8%
- viability, T/C [15]: 82.9%
- viability, T/C [16]: 78.3%
- viability, T/C [17]: 59.1%
- viability, T/C [18]: 100%
- viability, T/C [19]: 101%
- viability, T/C [20]: 85%
- viability, T/C [21]: 73.3%
- viability, T/C [22]: 70%
- viability, T/C [23]: 39.5%
- viability, T/C [24]: 4.24%
- viability, T/C [25]: 1.68%
- viability, T/C [26]: 1.74%
- viability, T/C [27]: 1.67%
- viability, T/C [28]: 2.07%
- viability, T/C [29]: 0.32%

Structure (SMILES): CCNC(=O)CC1N=C(c2ccc(Cl)cc2)c2cc(OC)ccc2-n2c(C)nnc21 (configuration not stated) + CC1OCC2(CCN(c3cnc(Sc4ccnc(N)c4Cl)c(N)n3)CC2)C1N
- IC50 [1]: 289 nM
- IC50 [2]: 172 nM
- IC50 [3]: 127 nM
- IC50 [4]: 132 nM
- IC50 [5]: 92.9 nM
- viability, T/C [6]: 71.5%
- viability, T/C [7]: 71.2%
- viability, T/C [8]: 47.3%
- viability, T/C [9]: 33.8%
- viability, T/C [10]: 26.5%
- viability, T/C [11]: 28.7%
- viability, T/C [12]: 76.3%
- viability, T/C [13]: 61.1%
- viability, T/C [14]: 36.9%
- viability, T/C [15]: 29.7%
- viability, T/C [16]: 23.6%
- viability, T/C [17]: 22.6%
- viability, T/C [18]: 66%
- viability, T/C [19]: 51.5%
- viability, T/C [20]: 40.4%
- viability, T/C [21]: 25.7%
- viability, T/C [22]: 19.6%
- viability, T/C [23]: 20.8%
- viability, T/C [24]: 65.8%
- viability, T/C [25]: 52.2%
- viability, T/C [26]: 40%
- viability, T/C [27]: 23.5%
- viability, T/C [28]: 20%
- viability, T/C [29]: 20.4%
- viability, T/C [30]: 60.7%
- viability, T/C [31]: 47.8%
- viability, T/C [32]: 35.7%
- viability, T/C [33]: 20.6%
- viability, T/C [34]: 15.9%
- viability, T/C [35]: 16.9%
